Assay results as given in ChEMBL document CHEMBL5316354, “From Natural Sources to Synthetic Derivatives: The Allyl Motif as a Powerful Tool for Fragment-Based Design in Cancer Treatment” (J Med Chem, 2023).
pEC50, pIC50: −log10 of the molar value.

What was measured:
MCF7 [1] = assay: Antitumor activity against human MCF7 cells assessed as cell growth inhibition incubated for 48 hrs; type: functional, cell-based; conditions: MCF7, 48 h
SGC-7901 = assay: Antitumor activity against human SGC-7901 cells assessed as cell growth inhibition; type: functional, cell-based
BGC-823 [2] = assay: Antitumor activity against human BGC-823 cells assessed as cell growth inhibition; type: functional, cell-based
PC-3 = assay: Antitumor activity against human PC-3 cells assessed as cell growth inhibition; type: functional, cell-based
MCF7 [3] = assay: Antitumor activity against human MCF7 cells assessed as cell growth inhibition; type: functional, cell-based
DU-145 = assay: Antitumor activity against human DU-145 cells assessed as cell growth inhibition; type: functional, cell-based
HeLa = assay: Antitumor activity against human HeLa cells assessed as cell growth inhibition; type: functional, cell-based
SW480 = assay: Antitumor activity against human SW480 cells assessed as inhibition of cell growth incubated for 24 to 48 hrs; type: functional, cell-based
SW-620 = assay: Antitumor activity against human SW620 cells assessed as cell growth inhibition; type: functional, cell-based
NCI-H23 = assay: Antitumor activity against human NCI-H23 cells assessed as cell growth inhibition; type: functional, cell-based
MCF7 [4] = assay: Antitumor activity against human MCF7 expressing HER-2 cells assessed as cell growth inhibition; type: functional, cell-based
MCF7 [5] = assay: Antitumor activity against human MCF7 cells assessed as decrease in cell viability; type: functional, cell-based
BGC-823 [6] = assay: Antitumor activity against human BGC-823 cells xenografted in BALB/c nude mouse assessed as tumor growth inhibition at 20 mg/kg, ip administered for 32 days relative to control; type: functional; conditions: BGC-823, 768 h, time 32 day
BGC-823 [7] = assay: Antitumor activity against human BGC-823 cells xenografted in BALB/c nude mouse assessed as tumor growth inhibition at 30 mg/kg, ip administered for 32 days relative to control; type: functional; conditions: BGC-823, 768 h, time 32 day
BGC-823 [8] = assay: Antitumor activity against human BGC-823 cells xenografted in BALB/c nude mouse assessed as tumor growth inhibition at 40 mg/kg, ip administered for 32 days relative to control; type: functional; conditions: BGC-823, 768 h, time 32 day
MDA-MB-231 [9] = assay: Antitumor activity against human MDA-MB-231 cells assessed as cell viability at 50 uM relative to control; type: functional; conditions: read-out: Activity
Ca9-22 [10] = assay: Antitumor activity against human Ca9-22 cells assessed as cellular proliferation at 3 uM; type: functional
MG-63 = assay: Antiproliferative activity against human MG-63 cells assessed as growth inhibition by MTT assay; type: functional
Ca9-22 [11] = assay: Antitumor activity against human Ca9-22 cells assessed as cellular proliferation at 30 uM; type: functional
Rattus norvegicus [12] = assay: Immunomodulatory activity in testosterone propionate induced benign prostatic hyperplasia Wistar rat model assessed as reduction in DHT level at 50 mg/kg, po relative to control; type: functional
Rattus norvegicus [13] = assay: Immunomodulatory activity in testosterone propionate induced benign prostatic hyperplasia Wistar rat model assessed as reduction in serum testosterone level at 50 mg/kg, po relative to control; type: functional
Rattus norvegicus [14] = assay: Immunomodulatory activity in testosterone propionate induced benign prostatic hyperplasia Wistar rat model assessed as reduction in prostate weight at 50 mg/kg, po relative to control; type: functional
MDA-MB-231 [15] = assay: Antitumor activity against human MDA-MB-231 cells assessed as cell viability at 0.5 uM relative to control; type: functional; conditions: read-out: Activity
MCF7 [16] = assay: Antitumor activity against human MCF7 cells assessed as inhibition of cell proliferation in the presence of 1mM of eugenol; type: functional, cell-based
MCF7 [17] = assay: Antitumor activity against human MCF7 cells assessed as inhibition of cell proliferation; type: functional, cell-based
HepG2 [18] = assay: Antitumor activity against human HepG2 cells assessed as reduction in cell growth; type: functional, cell-based
HepG2 [19] = assay: Cytotoxicity against human HepG2 cells; type: functional
MDA-MB-231 [20] = assay: Antitumor activity against human MDA-MB-231 cells assessed as inhibition of cell proliferation at 60 uM relative to control; type: functional
SK-BR-3 [21] = assay: Antitumor activity against human SK-BR-3 cells assessed as inhibition of cell proliferation at 40 uM relative to control; type: functional
MDA-MB-231 [22] = assay: Antitumor activity against human MDA-MB-231 cells assessed as inhibition of cell proliferation at 40 uM relative to control; type: functional
SK-BR-3 [23] = assay: Antitumor activity against human SK-BR-3 cells assessed as inhibition of cell proliferation at 60 uM relative to control; type: functional
Rattus norvegicus [24] = assay: Immunomodulatory activity in testosterone propionate induced benign prostatic hyperplasia Wistar rat model assessed as reduction in DHT level at 5 mg/kg, po relative to control; type: functional
Rattus norvegicus [25] = assay: Immunomodulatory activity in testosterone propionate induced benign prostatic hyperplasia Wistar rat model assessed as reduction in prostate weight at 5 mg/kg, po relative to control; type: functional
Rattus norvegicus [26] = assay: Immunomodulatory activity in testosterone propionate induced benign prostatic hyperplasia Wistar rat model assessed as reduction in serum testosterone level at 5 mg/kg, po relative to control; type: functional
SK-BR-3 [27] = assay: Antitumor activity against human SK-BR-3 cells assessed as cell growth inhibition; type: functional, cell-based
HL-60 = assay: Antitumor activity against human HL-60 cells assessed as cell growth inhibition; type: functional, cell-based
NCI-H226 = assay: Antitumor activity against human NCI-H226 cells assessed as cell growth inhibition; type: functional, cell-based
[28] = Antitumor activity against human Osteosarcoma cells assessed as increase in intracellular calcium concentration; type: functional, cell-based; conditions: Osteosarcoma cell
[29] = Antitumor activity against human OC2 cells assessed as increase in cell proliferation at 10 uM relative to control; type: functional

C/C=C/c1ccc(O)c(OC)c1
pIC50 (MCF7 [1]): 4.94

C=CCc1cc(/C=C2\CC/C(=C\c3ccc(O)c(CC=C)c3)C2=O)ccc1O
pIC50 (SGC-7901): 5.16
pIC50 (BGC-823 [2]): 5.15

C=CCOc1cccc2c1C(=O)C=C(C)C2=O
pIC50 (PC-3): 4.49

Cn1[se]c2ccccc2c1=O
pIC50 (MCF7 [3]): 4.49
pIC50 (DU-145): 4.52

CCCCn1[se]c2ccccc2c1=O
pIC50 (MCF7 [3]): 4.86
pIC50 (DU-145): 4.55

CC(C)CCn1[se]c2ccccc2c1=O
pIC50 (MCF7 [3]): 4.54

O=c1c2ccccc2[se]n1C1CCCCC1
pIC50 (MCF7 [3]): 5.14
pIC50 (DU-145): 5.24

CCC[C@@H](Cc1c[nH]c2ccccc12)NS(=O)(=O)c1c(C(C)C)cc(C(C)C)cc1C(C)C
pIC50 (HeLa): 4.51

C=CCc1cc(/C=C2\CN(Cc3ccccc3)C/C(=C\c3ccc(O)c(CC=C)c3)C2=O)ccc1O
pIC50 (SGC-7901): 5.22
pIC50 (BGC-823 [2]): 5.16

C=CCSC[C@H](NC(=O)C(C)c1ccc2cc(OC)ccc2c1)C(=O)OCC (stereo partly drawn)
pIC50 (SW480): 4.51

C=CCc1cccc(/C=N/NC(=O)Cn2cnc3ccc([N+](=O)[O-])cc3c2=O)c1O
pIC50 (SW-620): 7.15
pIC50 (PC-3): 7.15
pIC50 (NCI-H23): 7.52

C=CCNC(=S)NC(=O)c1ccccc1
pIC50 (MCF7 [4]): 6.22
pIC50 (MCF7 [3]): 5.82

C=CCSCC(N)C(=O)OOc1ccc(CNC(=O)CCCCCCCC)cc1OC (stereo not drawn)
pIC50 (MCF7 [5]): 4.18

C=CCSC[C@H](NC(=O)Cc1ccccc1Nc1c(Cl)cccc1Cl)C(=O)OCC
pIC50 (SW480): 4.51

C=CCSC[C@H](NC(=O)c1ccccc1O)C(=O)OCC
pIC50 (SW480): 4.51

C=CCSSSCC=C [ALLITRIDIN]
inhibition in vivo at 20 mg/kg (BGC-823 [6]): 38%
inhibition in vivo at 30 mg/kg (BGC-823 [7]): 50%
inhibition in vivo at 40 mg/kg (BGC-823 [8]): 57%

C/C=C/c1ccc(OC)cc1 [ANETHOLE]
viability at 50 µM (MDA-MB-231 [9]): 60%
Activity (Ca9-22 [10]): 42.7%
GI50 (MG-63): 60.2 µM
Activity (Ca9-22 [11]): 5.2%

C=CCSCC=C [DIALLYL SULFIDE]
inhibition in vivo at 50 mg/kg (Rattus norvegicus [12]): 75%
inhibition in vivo at 50 mg/kg (Rattus norvegicus [13]): 68%
inhibition in vivo at 50 mg/kg (Rattus norvegicus [14]): 60%

COc1cccc2c1C(=O)c1c(O)c3c(c(O)c1C2=O)C[C@@](O)(C(=O)CO)C[C@@H]3O[C@H]1C[C@H](N)[C@H](O)[C@H](C)O1 [DOXORUBICIN]
viability at 0.5 µM (MDA-MB-231 [15]): 40%
pIC50 (MCF7 [16]): 7.06
pIC50 (MCF7 [17]): 6.30
pIC50 (SGC-7901): 4.43
pIC50 (BGC-823 [2]): 4.42

C=C1[C@H](CO)[C@@H](O)C[C@@H]1n1cnc2c(=O)[nH]c(N)nc21 [ENTECAVIR ANHYDROUS]
pEC50 (HepG2 [18]): 8.43
CC50 (HepG2 [19]): 30 µM

C=CCc1ccc(O)c(OC)c1 [EUGENOL]
inhibition at 60 µM (MDA-MB-231 [20]): > 90%
inhibition at 40 µM (SK-BR-3 [21]): > 90%
inhibition at 40 µM (MDA-MB-231 [22]): > 90%
pIC50 (MCF7 [1]): < 2.82
inhibition at 60 µM (SK-BR-3 [23]): > 90%

CC(C)(C)NC(=O)[C@H]1CC[C@H]2[C@@H]3CC[C@H]4NC(=O)C=C[C@]4(C)[C@H]3CC[C@]12C [FINASTERIDE]
inhibition in vivo at 5 mg/kg (Rattus norvegicus [24]): 52%
inhibition in vivo at 5 mg/kg (Rattus norvegicus [25]): 53%
inhibition in vivo at 5 mg/kg (Rattus norvegicus [26]): 55%

COC1=C2C[C@@H](C)C[C@H](OC)[C@H](O)[C@@H](C)/C=C(\C)[C@H](OC(N)=O)[C@@H](OC)/C=C\C=C(/C)C(=O)NC(=CC1=O)C2=O [GELDANAMYCIN]
pIC50 (MCF7 [3]): 7.96
pIC50 (SK-BR-3 [27]): 8.40

CCCCCCCCC(=O)NCc1ccc(O)c(OC)c1 [NONIVAMIDE]
pIC50 (MCF7 [5]): 2.65

C=CCc1cccc(/C=N/NC(=O)CN2CCN(Cc3ccccc3)CC2)c1O [PAC-1]
pIC50 (HL-60): 6.04
pIC50 (MCF7 [3]): < 4.12
pIC50 (NCI-H226): 6.46

C=CCc1ccc2c(c1)OCO2 [SAFROLE]
pEC50 [28]: 3.35
Activity [29]: 50%

C=CCNC1=C2C[C@@H](C)C[C@H](OC)[C@H](O)[C@@H](C)/C=C(\C)[C@H](OC(N)=O)[C@@H](OC)/C=C\C=C(/C)C(=O)NC(=CC1=O)C2=O [TANESPIMYCIN]
pIC50 (MCF7 [3]): 8.30
pIC50 (SK-BR-3 [27]): 8.40
